Data: ChEMBL document CHEMBL4219112, “Rational drug design and synthesis of new α-Santonin derivatives as potential COX-2 inhibitors” (Bioorg Med Chem Lett, 2018)
One block for each compound: values may come before it. Calls of active or inactive are those of the source. The rule behind the calls is not given here.

Columns and labels:
[1] = system: RIF-1; experiment: Inhibition of COX2 expression levels in PH-PDT-treated mouse RIF1 cells at 400 uM after 24 hrs by Western blot analysis; assay type: functional, cell-based
[2] = system: RIF-1; experiment: Cytotoxicity against mouse RIF1 cells at 50 to 800 uM after 24 hrs; assay type: cell-based; conditions: rif-1, 24 h
[3] = system: RIF-1; experiment: Cytotoxicity against mouse RIF1 cells at 500 to 1000 uM after 24 hrs; assay type: cell-based; conditions: rif-1, 24 h
[4] = biological target: T1, Prostaglandin G/H synthase 2 (Mus musculus) (UniProt Q05769); experiment: Inhibition of COX-2 in PH-PDT-treated mouse RIF1 cells assessed as suppression of PGE2 production at 500 uM after 24 hrs by spectrophotometric analysis
T1 sequence (whole entry): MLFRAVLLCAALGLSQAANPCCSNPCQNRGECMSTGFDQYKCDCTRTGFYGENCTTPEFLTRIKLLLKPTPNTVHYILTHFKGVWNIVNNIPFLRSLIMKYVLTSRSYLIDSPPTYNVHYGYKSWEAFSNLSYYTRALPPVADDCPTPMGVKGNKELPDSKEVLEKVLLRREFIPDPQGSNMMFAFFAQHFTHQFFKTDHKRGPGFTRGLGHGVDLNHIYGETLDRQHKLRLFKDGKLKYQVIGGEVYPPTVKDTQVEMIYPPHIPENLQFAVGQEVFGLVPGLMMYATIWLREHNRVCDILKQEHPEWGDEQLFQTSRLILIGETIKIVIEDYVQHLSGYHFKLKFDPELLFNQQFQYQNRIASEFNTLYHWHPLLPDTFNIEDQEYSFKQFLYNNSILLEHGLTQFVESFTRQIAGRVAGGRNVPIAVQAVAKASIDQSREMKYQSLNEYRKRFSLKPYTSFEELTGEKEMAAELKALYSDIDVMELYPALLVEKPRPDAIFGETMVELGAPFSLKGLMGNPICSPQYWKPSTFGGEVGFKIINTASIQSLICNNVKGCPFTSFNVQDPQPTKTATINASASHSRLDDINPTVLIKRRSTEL

[5] = system: RIF-1; experiment: Inhibition of COX2 expression levels in PH-PDT-treated mouse RIF1 cells at 500 uM after 24 hrs by Western blot analysis; assay type: functional, cell-based
[6] = system: RIF-1; experiment: Inhibition of COX2 expression levels in PH-PDT-treated mouse RIF1 cells at 750 uM after 24 hrs by Western blot analysis; assay type: functional, cell-based
[7] = system: RIF-1; experiment: Inhibition of COX2 expression levels in PH-PDT-treated mouse RIF1 cells at 62.5 uM after 24 hrs by Western blot analysis; assay type: functional, cell-based
[8] = biological target: T1, Prostaglandin G/H synthase 2 (Mus musculus); experiment: Inhibition of COX-2 in PH-PDT-treated mouse RIF1 cells assessed as suppression of PGE2 production at 750 uM after 24 hrs by spectrophotometric analysis
[9] = system: RIF-1; experiment: Cytotoxicity against mouse RIF1 cells at 62.5 to 750 uM after 24 hrs; assay type: cell-based; conditions: rif-1, 24 h
[10] = biological target: T1, Prostaglandin G/H synthase 2 (Mus musculus); experiment: Inhibition of COX-2 in PH-PDT-treated mouse RIF1 cells assessed as suppression of PGE2 production at 200 uM after 24 hrs by spectrophotometric analysis
[11] = system: RIF-1; experiment: Inhibition of COX2 expression levels in PH-PDT-treated mouse RIF1 cells at 800 uM after 24 hrs by Western blot analysis; assay type: functional, cell-based
[12] = biological target: T1, Prostaglandin G/H synthase 2 (Mus musculus); experiment: Inhibition of COX-2 in PH-PDT-treated mouse RIF1 cells assessed as suppression of PGE2 production at 400 uM after 24 hrs by spectrophotometric analysis
[13] = system: RIF-1; experiment: Cytotoxicity against mouse RIF1 cells at 100 to 800 uM after 24 hrs; assay type: cell-based; conditions: rif-1, 24 h
[14] = biological target: T1, Prostaglandin G/H synthase 2 (Mus musculus); experiment: Inhibition of COX-2 in PH-PDT-treated mouse RIF1 cells assessed as suppression of PGE2 production at 800 uM after 24 hrs by spectrophotometric analysis
[15] = system: RIF-1; experiment: Inhibition of COX2 expression levels in PH-PDT-treated mouse RIF1 cells at 250 uM after 24 hrs by Western blot analysis; assay type: functional, cell-based
[16] = biological target: T1, Prostaglandin G/H synthase 2 (Mus musculus); experiment: Inhibition of COX-2 in PH-PDT-treated mouse RIF1 cells assessed as suppression of PGE2 production at 250 uM after 24 hrs by spectrophotometric analysis
[17] = system: RIF-1; experiment: Cytotoxicity against mouse RIF1 cells at 250 to 750 uM after 24 hrs; assay type: cell-based; conditions: rif-1, 24 h

inhibition [8]: Active
inhibition [4]: Active
SMILES: Cc1cc(OCc2ccccc2)c(C)c2c1CC[C@H]1[C@H](C)C(=O)O[C@@H]21
inhibition [6]: Active
inhibition [7]: Active
Activity [9]: Toxic
inhibition [5]: Active

inhibition [10]: Active
inhibition [12]: Active
inhibition [14]: inactive
SMILES: CC(=O)Oc1cc(C)c2c(c1C)[C@@H]1OC(=O)[C@@H](C)[C@@H]1CC2
inhibition [1]: inactive
inhibition [11]: Active
Activity [13]: Non-Toxic

The next lines start with the compound.

SMILES: Cc1cc(OCc2ccc(C(F)(F)F)cc2)c(C)c2c1CC[C@H]1[C@H](C)C(=O)O[C@@H]21
inhibition [1]: Active
Activity [2]: Non-Toxic

SMILES: CC1=C2[C@@H]3OC(=O)[C@@H](C)[C@@H]3CC[C@@]2(C)C=CC1=O
Activity [3]: Non-Toxic
inhibition [4]: Active
inhibition [5]: Active

SMILES: Cc1cc(O)c(C)c2c1CC[C@H]1[C@H](C)C(=O)O[C@@H]21
inhibition [15]: inactive
inhibition [16]: Active
Activity [17]: Non-Toxic
inhibition [5]: Active
